Experimental data published in patent US20250018048A1, “FLUCONAZOLE-COX INHIBITOR HYBRIDS: A DUAL-ACTING CLASS OF ANTIFUNGAL AZOLES” (Ramot at Tel-Aviv University Ltd., priority 2022, published 2025).
Converted amounts (≈) assume the structure as drawn.

Experiments:
Format in all cases: cell-based
C. albicans SN152 = assay: MIC80 broth double-dilution assay; details: for MIC80: Candida albicans, SN152, 24 h, read-out: MIC80 against C. albicans SN152; for MIC80 against C. albicans SN152: YPAD medium, 30° C., 24 h, parent strain of the erg11ΔΔ/erg3ΔΔ mutant
Procedure, shortened: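 CLSI M27-A3-based broth microdilution in YPAD, cells diluted from 1×10^−3 OD600 suspension 1:100, hybrids double-diluted from 64 to 0.003 μg/mL. After 24 h at 30 °C, MIC80 is the OD600 reduction >80% versus no-drug wells; triplicate, two independent experiments.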

C. guilliermondii T-47 = assay: MIC80 broth double-dilution assay; details: YPAD medium, 30° C., 24 h; for MIC80: Meyerozyma guilliermondii, T47, read-out: MIC80 against C. guilliermondii T-47
Procedure, shortened: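 Broth double dilution following modified CLSI M27-A3, YPAD medium, compound range 64 to 0.003 μg/mL; inoculum from 1×10^−3 OD600 suspension diluted 1:100. After 24 h at 30 °C, MIC80 taken as lowest concentration reducing OD600 by >80% versus no-drug control; triplicates, fluconazole and voriconazole as controls.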

C. auris ATCC MYA5001 = assay: MIC broth double-dilution assay with MTT (CLSI M27-A3); details: 37° C., 24 h; for MIC: Candidozyma auris, ATCCMYA5001, YPAD medium, growth score 0 or 1, read-out: MIC against C. auris 5001; for MIC against C. auris 5001: YPAD medium, growth score 0 or 1
Experimental: (§1) Minimal inhibitory concentration broth double-dilution assay: C. auris minimal inhibitory concentrations (MICs) were determined using CLSI M27-A3 guidelines with minor modifications. Starter cultures were streaked from glycerol stock onto YPAD agar plates and grown for 24 h at 37° C. Colonies were suspended in 1 mL PBS and diluted to 1×10^−3 optical density at 600 nm (OD600) and then diluted 1:100 into fresh medium. hybrids dissolved in DMSO were added to YPAD broth (32 μL stock solution in 1218 μL of YPAD broth), and serial double dilutions of hybrids in YPAD were prepared in flat-bottomed 96-well microplates (Corning) to enable testing of concentrations ranging from 64 μg/mL to 0.007 μg/mL. Control wells with yeast cells but no drug and blank wells containing only YPAD were prepared. An equal volume (100 μL) of yeast suspension in YPAD broth was added to each well with the exceptions of the blank wells. After incubation for 24 h at 37° C., MTT (50 μL of a 1 mg/mL solution in ddH2O) was added to each well followed by additional incubation at 37° C. for 2 h. MIC values (Table S3) were defined as the lowest concentration of an antifungal agent that caused a specified reduction in visible growth as per the CLSI M27-A3 protocol. The magnitude of reduction in visible growth was assessed using the following numerical scale: 0, optically clear; 1, slightly hazy; 2, prominent decrease (˜50%) in visible growth; 3, slight reduction in visible growth; and 4, no reduction in visible growth. The MIC was defined based on reduction in growth to 0 or 1. Results were confirmed in two independent experiments, and each concentration was tested in triplicate. FLC and VOR were used as control drugs.

C. auris ATCC MYA5002 = assay: as above; details: 37° C., 24 h; for MIC: Candidozyma auris, ATCCMYA5002, YPAD medium, growth score 0 or 1, read-out: MIC against C. auris 5002; for MIC against C. auris 5002: YPAD medium, growth score 0 or 1
Experimental: as §1

[1] = system: erg11ΔΔ/erg3ΔΔ mutant C. albicans; assay: Growth curve analysis of C. albicans lacking CYP51; details: YPAD, 30° C., 48 h
Experimental: The clinically used FLC and VOR act primarily by preventing ergosterol biosynthesis via inhibition of CYP51. Analysis was done to determine whether fungal growth inhibition by the hybrids required the presence of the ERG11 gene that encodes for CYP51. The antifungal activities of hybrids 1 and 5 and of FLC and VOR were determined against an erg11ΔΔ/erg3ΔΔ mutant C. albicans strain and against C. albicans SN152 from which this double knockout strain was derived (Table S2). […] Yeast growth was followed at OD600 over 48 h in 96-well plates containing serial double dilutions of the tested hybrids.
Cells of erg11ΔΔ/erg3ΔΔ mutant C. albicans were grown in YPAD media at 30° C. and treated with different concentrations of the tested hybrids. Growth was measured by recording the OD600 values every 40 minutes over a 48-h course on an automated plate reader.
Growth curve analyses: Growth curves were determined using the double-dilution method in 96-well plates. Starter cultures were streaked from glycerol stock onto YPAD agar plates and grown for 24 h at 30° C. Colonies were suspended in 1 mL PBS and diluted to 1×10^−3 OD600 and then diluted 1:100 into fresh medium. Hybrids dissolved in DMSO were added to YPAD broth (32 μL stock solution in 1218 μL of YPAD broth), and serial double dilutions of hybrids in YPAD were prepared in flat-bottomed 96-well microplates (Corning) to enable testing of concentrations ranging from 64 μg/mL to 1 μg/mL. Control wells with yeast cells but no drug (100% growth) and blank wells containing only YPAD (0% growth) were prepared. An equal volume (100 μL) of yeast suspensions in YPAD broth was added to each well with the exceptions of the blank wells. Growth was determined at 30° C. by measuring the OD600 using a plate reader (Infinite M200 PRO, Tecan) every 40 minutes over 48 h. Each concentration was tested in triplicate, and results were confirmed by two independent sets of experiments. FLC and VOR were used as control drugs.

[2] = entire range of concentrations (64 to 1 μg/mL)

| Structure (SMILES) | MIC80 (C. albicans SN152) [µg/mL] | MIC80 (C. guilliermondii T-47) [µg/mL] | MIC (C. auris ATCC MYA5001) [µg/mL] | MIC (C. auris ATCC MYA5002) [µg/mL] | Effect on growth (OD600) of the double knockout mutant [1, 2] | MIC80 against C. albicans SN152 (C. albicans SN152) [ng/mL] | MIC80 against C. guilliermondii T-47 (C. guilliermondii T-47) [µg/mL] | MIC against C. auris 5001 (C. auris ATCC MYA5001) [µg/mL] | MIC against C. auris 5002 (C. auris ATCC MYA5002) [µg/mL] | Effect on growth (OD600) of the double knockout mutant ([1]; at 64 μg/mL, the highest concentration tested) |
| --- | --- | --- | --- | --- | --- | --- | --- | --- | --- | --- |
| OC(Cn1cncn1)(Cn1cncn1)c1ccc(F)cc1F [FLC, fluconazole] | 0.5 (≈ 1.63 µM) | 4 (≈ 13.1 µM) | 8 (≈ 26.1 µM) | > 64 | no significant effect on the growth |  |  |  |  |  |
| CC(C)Cc1ccc([C@H](C)C(=O)NC[C@](O)(Cn2cncn2)c2ccc(F)cc2F)cc1 [Hybrid 1] |  |  |  |  | clear dose-dependent reduction in growth | 3 (≈ 0.00678 µM) | 0.06 (≈ 0.136 µM) | 0.06 (≈ 0.136 µM) | 1 (≈ 2.26 µM) |  |
| C[C@H](C(=O)NC[C@](O)(Cn1cncn1)c1ccc(F)cc1F)c1ccc(-c2ccccc2)c(F)c1 [Hybrid 5] |  |  |  |  | clear dose-dependent reduction in growth | 7 (≈ 0.0146 µM) | 0.5 (≈ 1.04 µM) | 0.06 (≈ 0.125 µM) | 4 (≈ 8.32 µM) |  |
| C[C@@H](c1ncncc1F)[C@](O)(Cn1cncn1)c1ccc(F)cc1F [VOR, voriconazole, reference compound] | 0.007 (≈ 0.02 µM) | 0.06 (≈ 0.172 µM) | 0.03 (≈ 0.0859 µM) | 1 (≈ 2.86 µM) |  |  |  |  |  | Modest reduction in growth |
